In data set [1] the test system is cytochrome bd oxidase. The settings on record: cited from earlier work.
For data set [2], the target named is cytochrome bo oxidase (Escherichia coli, UniProt P0ABI8). Conditions: read-out: Km for O2; cited from earlier work.
The subject of data set [3] is aminotransferase from Leishmania mexicana. Conditions: enzyme expressed in E. coli; cited from earlier work.
Data set [4] addresses T1, endogenous alcohol dehydrogenase backflux activity (Escherichia coli, UniProt P27250).
T1 sequence (P27250 1-339): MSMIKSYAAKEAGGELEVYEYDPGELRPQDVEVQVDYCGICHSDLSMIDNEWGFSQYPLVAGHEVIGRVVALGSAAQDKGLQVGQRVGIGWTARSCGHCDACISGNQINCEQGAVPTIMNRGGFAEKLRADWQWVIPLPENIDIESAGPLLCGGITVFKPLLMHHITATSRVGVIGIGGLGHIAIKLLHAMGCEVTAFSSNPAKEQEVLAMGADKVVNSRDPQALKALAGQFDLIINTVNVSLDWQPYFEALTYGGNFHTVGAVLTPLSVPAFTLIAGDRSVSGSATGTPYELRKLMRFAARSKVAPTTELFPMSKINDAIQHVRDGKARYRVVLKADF
Conditions: purified streptavidin-tagged protein, in the presence of NADP+.
Text: The sample was purified while following the backflux activity.
The yjgB gene was cloned with a streptavidin tag, expressed and purified in order to characterize its properties.

The Km is the concentration of substrate that gives half-maximal velocity.

Sequence of cytochrome bo oxidase (P0ABI8 whole entry): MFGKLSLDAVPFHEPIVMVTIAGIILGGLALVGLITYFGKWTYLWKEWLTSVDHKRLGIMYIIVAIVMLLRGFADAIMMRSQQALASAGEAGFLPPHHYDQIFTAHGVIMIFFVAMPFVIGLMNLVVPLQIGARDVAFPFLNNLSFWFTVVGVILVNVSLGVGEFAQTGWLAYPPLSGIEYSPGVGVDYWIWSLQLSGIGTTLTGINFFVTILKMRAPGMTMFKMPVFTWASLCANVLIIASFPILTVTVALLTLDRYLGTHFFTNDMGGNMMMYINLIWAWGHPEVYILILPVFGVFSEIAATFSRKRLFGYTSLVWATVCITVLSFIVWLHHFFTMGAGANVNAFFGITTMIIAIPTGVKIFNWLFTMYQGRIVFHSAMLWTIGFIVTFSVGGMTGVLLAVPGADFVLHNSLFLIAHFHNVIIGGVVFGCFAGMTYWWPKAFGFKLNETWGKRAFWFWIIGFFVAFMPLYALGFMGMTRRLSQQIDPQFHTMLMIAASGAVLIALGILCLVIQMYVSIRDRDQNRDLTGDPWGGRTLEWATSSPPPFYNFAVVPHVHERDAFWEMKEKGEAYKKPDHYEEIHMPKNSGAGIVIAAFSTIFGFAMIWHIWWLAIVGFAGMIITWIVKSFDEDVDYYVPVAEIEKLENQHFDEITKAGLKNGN
Sequence of cytochrome bo oxidase (P0ABJ1 25-315 partner): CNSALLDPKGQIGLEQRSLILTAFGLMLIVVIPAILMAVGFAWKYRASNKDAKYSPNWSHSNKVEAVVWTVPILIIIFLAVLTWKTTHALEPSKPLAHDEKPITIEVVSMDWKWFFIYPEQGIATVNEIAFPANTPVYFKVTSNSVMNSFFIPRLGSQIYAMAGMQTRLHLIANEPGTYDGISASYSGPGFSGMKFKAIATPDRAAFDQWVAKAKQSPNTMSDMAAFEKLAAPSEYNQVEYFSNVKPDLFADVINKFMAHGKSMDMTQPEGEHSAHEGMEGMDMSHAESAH
Sequence of cytochrome bo oxidase (P0ABJ3 whole entry partner): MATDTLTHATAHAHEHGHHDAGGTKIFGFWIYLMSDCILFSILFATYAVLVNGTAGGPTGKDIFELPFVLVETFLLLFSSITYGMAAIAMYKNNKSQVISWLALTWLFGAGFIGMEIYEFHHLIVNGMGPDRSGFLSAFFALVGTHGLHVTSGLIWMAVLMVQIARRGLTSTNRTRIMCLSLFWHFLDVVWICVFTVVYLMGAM
Sequence of cytochrome bo oxidase (P0ABJ6 whole entry partner): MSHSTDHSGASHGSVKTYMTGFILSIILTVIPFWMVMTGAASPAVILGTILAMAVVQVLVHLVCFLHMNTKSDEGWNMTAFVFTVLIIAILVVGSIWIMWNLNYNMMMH

Take `O=O` [Sample O2]: the results for the Michaelis constant (Km) in data set [1] (read-out: Km for O2) and in data set [2] were 0.01 µM and about 1 µM, respectively.
For `CC(C)C[C@H](N)C(=O)O` [leucine], the “activity (considered 100% on tyrosine)” value in data set [3] is listed as 25%.
`CSCC[C@H](N)C(=O)O` [methionine]: the “activity (considered 100% on tyrosine)” value in data set [3] is listed as 25%.
Regarding `N[C@@H](Cc1ccccc1)C(=O)O` [phenylalanine], the “activity (considered 100% on tyrosine)” value in data set [3] is listed as 90%.
As to `N[C@@H](Cc1c[nH]c2ccccc12)C(=O)O` [tryptophan], the “activity (considered 100% on tyrosine)” value in data set [3] was 85%.
Turning to `N[C@@H](Cc1ccc(O)cc1)C(=O)O` [tyrosine], in data set [3], the “activity (considered 100% on tyrosine)” value was 100%.
On to Cytochrome bd-II, for which, in data set [1] (from Bekker et al. 2009), the “In vivo sp act (mol O2/mol cytochrome bd/s)” value is reported as 70 ± 12 mol O2/mol cytochrome bd/s and the “Vmax (mol O/mol cytochrome bd/s)” value is recorded as 818 ± 75 mol O/mol cytochrome bd/s.

B1: yjgB: E. coli alcohol dehydrogenase yjgB (GenBank NP_418690.4) identified as carrying backflux activity (protein, UniProt P27250 1-339, looked up)
Aldehyde reductase Ahr: MSMIKSYAAKEAGGELEVYEYDPGELRPQDVEVQVDYCGICHSDLSMIDNEWGFSQYPLVAGHEVIGRVVALGSAAQDKGLQVGQRVGIGWTARSCGHCDACISGNQINCEQGAVPTIMNRGGFAEKLRADWQWVIPLPENIDIESAGPLLCGGITVFKPLLMHHITATSRVGVIGIGGLGHIAIKLLHAMGCEVTAFSSNPAKEQEVLAMGADKVVNSRDPQALKALAGQFDLIINTVNVSLDWQPYFEALTYGGNFHTVGAVLTPLSVPAFTLIAGDRSVSGSATGTPYELRKLMRFAARSKVAPTTELFPMSKINDAIQHVRDGKARYRVVLKADF
On to B1, for which, in data set [4], the “activity with BDO as a substrate” value is listed as “robust activity”.

(Values after US12312627B2, “Microorganisms and methods for production of 4-hydroxybutyrate, 1,4-butanediol and related compounds” (priority 2013, dated 2025).)
